Entries after “also recorded” stand apart in the source; their conditions may differ.
Columns and labels:
[1] = tested on: LPS-stimulated macrophages; experiment: Cytokine secretion in TLR-stimulated bone-marrow derived macrophages; format: cell-based, mouse
Description: Bone-marrow derived macrophages were differentiated for 7 days in DMEM supplemented with 5 ng/ml recombinant M-CSF (R&D systems), 2 mM glutamine, 10% foetal calf serum, penicillin and streptomycin.
Following stimulation with ligands, the cell culture medium was removed, clarified by centrifugation for 10 min at 14000×g and the concentration of TNFα, IL-6, IL-10, IL-12p40, and RANTES were measured using the Bio-Plex Pro Assay system from Bio-Rad. IFNβ was measured using an ELISA kit from R&D Systems according to the manufacturers' instructions.
RNA was extracted using the RNeasy Micro Kit (Qiagen). cDNA was generated using the iScript cDNA synthesis kit and quantified by qPCR using the SsoFast EvaGreen Supermix (Bio-Rad Laboratories). […] Fold-induction for each gene was reported relative to untreated control cells, which was set to 1. The concentrations of TNFα, IL-6, IL-10, IL-12p40, and RANTES in culture supernatants were measured using the Bio-Plex Pro Assay system from Bio-Rad. Further details in supplementary information.
Following stimulation with ligands, the cell culture medium was removed, clarified by centrifugation for 10 min at 14000×g and the concentration of TNFα, IL-6, IL-10, IL-12p40 and RANTES were measured using the Bio-Plex Pro Assay system from Bio-Rad. IL-1ra and IFNβ were measured using ELISA kits from R&D Systems.

[2] = tested on: TLR-stimulated macrophages; experiment: qPCR of CREB-dependent gene mRNA in TLR-stimulated macrophages; format: cell-based, mouse; conditions: for Nurr77 mRNA: LPS-stimulated macrophages; for IL-10 mRNA: TLR/LPS-stimulated macrophages
Description: Bone-marrow derived macrophages were differentiated for 7 days in DMEM supplemented with 5 ng/ml recombinant M-CSF (R&D systems), 2 mM glutamine, 10% foetal calf serum, penicillin and streptomycin. […]
mRNA was extracted from macrophages using the RNeasy Micro Kit following the manufacturers' instructions (Qiagen). cDNA was generated from 1 μg of total RNA using the iScript cDNA synthesis kit and quantified by qPCR using the SsoFast EvaGreen Supermix on a CFX96 real time system (Bio-Rad Laboratories). The relative expression of each gene was calculated from Ct values using the Pfaffl method^30 and was normalized against the mRNA levels of 18S RNA. The following primers were used: IL-10-F, […]; IL-10-R, […]; c-Fos-F, […]; c-Fos-R, […]; nurr1-F, […]; nurr1-R, […]; nurr77-F, […]; nurr77-R, […]; 18S-F, […]; 18S-R, […]; IL-1ra-F, […]; IL-1ra-R, […]; SPHK1-F, […]; SPHK1-R, […]; LIGHT-F, […]; LIGHT-R, […]; ArgI-F, […]; ArgI-R, […]; IFN-F, […]; IFNγ-R, […].
[…]. Biochem J 434:93-104) using the indicated antibodies. RNA was extracted using the RNeasy Micro Kit (Qiagen). cDNA was generated using the iScript cDNA synthesis kit and quantified by qPCR using the SsoFast EvaGreen Supermix (Bio-Rad Laboratories). The relative expression of each gene was calculated from Ct values using the Pfaffl method (Pfaffl M W (2001) A new mathematical model for relative quantification in real-time RT-PCR. Nucleic Acids Res 29:e45) and was normalized against the mRNA levels of 18S or GAPDH RNA. Fold-induction for each gene was reported relative to untreated control cells, which was set to 1. The concentrations of TNFα, IL-6, IL-10, IL-12p40, and RANTES in culture supernatants were measured using the Bio-Plex Pro Assay system from Bio-Rad. Further details in supplementary information.
(§1) mRNA was extracted from cells using the RNeasy Micro Kit following the manufacturers' instructions (Qiagen). cDNA was generated from 1 μg of total RNA using the iScript cDNA synthesis kit and quantified by qPCR using the SsoFast EvaGreen Supermix on a CFX96 real time system (Bio-Rad Laboratories). The relative expression of each gene was calculated from Ct values using the Pfaffl method (5) and was normalized against the mRNA levels of 18S RNA or GAPDH. Results are reported relative to untreated control cells, which was set to 1. The following primers were used: […]

[3] = tested on: CRTC3; experiment: CRTC3 nuclear translocation (immunofluorescence, live imaging); format: cell-based; conditions: WT CRTC3
From the text: FIGS. 15A to 15C. SIK inhibitors induce the dephosphorylation of CRTC3 at Ser62, Ser162, Ser329 and Ser370 and its translocation to the nucleus. (FIG. 15A) HEK293 cells were transfected with FLAG-CRTC2, FLAG-CRTC3 or FLG-CRTC3[S162A]. Aliquots of the cell extracts were subjected to SDS-PAGE and immunoblotting using an antibody that recognizes CRTC2 phosphorylated at Ser171. […] (FIG. 15B) HEK293 cells were transfected with FLAG-CRTC3, FLAG-CRTC3[S62A/S162A/S329A/S370A] (termed CRTC3-4A) or with empty vector (FLAG-ev). […]. (FIG. 15C) Inhibition of SIKs promotes the translocation of endogenous CRTC3 to the nucleus. […].
RAW264.7 cells were grown on glass coverslips and treated with inhibitors for 1 h. Cells were then fixed for 10 min in 3.7% paraformaldehyde, permeabilized for 5 min using 0.1% Triton X-100 in PBS and blocked for 45 min using 3% BSA in PBS. Cells were stained with anti-CRTC3 (Abcam 1:200) and anti-α-tubulin (Santa Cruz 1:500) followed by anti-rabbit-alexa488 and anti-mouse-alexa594 (Invitrogen 1:500), respectively. Antibodies were diluted in blocking buffer and incubated with the cells for 45 min. […] Images were recorded every 30 s for 1.5 min prior to the addition of drug after which cells were imaged for a further 60 min.

[4] = tested on: SIK isoforms; experiment: Kinase assays, SIK isoforms; format: biochemical; conditions: in vitro
[5] = tested on: LPS-injected mice; experiment: Cytokine levels in serum of LPS-challenged mice; format: in vivo, mouse
Description: C57BL/6 mice (8-12 week old male mice) were injected with vehicle control or 0-30 mg/kg of MRT68771. After 30 min, LPS was introduced by intraperitoneal injection (3.5 mg/kg). One hour later, the mice were sacrificed and the concentrations of TNFα, IL-10 and IFNβ in the sera were measured as described above.

[6] = Drug metabolism and pharmacokinetic properties; conditions: compared with MRT67307
[7] = tested on: AMPK-related kinases; format: biochemical; conditions: members of the AMPK subfamily other than SIKs
Description: (§2) Recombinant SIK1, SIK2, SIK3 were expressed as GST-fusion proteins in HEK293 cells and purified on a glutathione-Sepharose column. […] FLAG-CRTC3 was immunoprecipitated using anti-FLAG M2 agarose, washed in kinase buffer (50 mM Tris/HCl pH 7.4, 10 mM Mg acetate, 0.1 mM EGTA, 2 mM DTT) and reactions initiated by adding 4 U/ml recombinant kinase with 0.1 mM ATP (specific activity 3000 cpm/pmol). Phosphorylation of CRTC3 was monitored by autoradiography as well as immunoblotting using phosphospecific antibodies raised against Ser162, Ser329 and Ser370. […] Kinase profiling was performed as previously described (7) and performed by the International Centre for Kinase Profiling (www.kinase-screen.mrc.ac.uk).

[8] = tested on: protein kinases that possess a threonine residue at the gatekeeper site (Src, Lck, Yes, BTK, FGF and Ephrin receptors); experiment: Kinase profiling, kinases with threonine at the gatekeeper site; format: biochemical; conditions: kinase panel; 1 μM KIN112, 0.1 μM HG-9-91-01
Description: as §2

[9] = tested on: LKB1−/− cells; experiment: CREB-dependent gene transcription in IL-1 stimulated LKB1+/+ and LKB1−/− MEFs; format: cell-based, mouse
[10] = tested on: LPS-stimulated BMDMs; experiment: Expression of macrophage markers in LPS-stimulated BMDMs (qPCR); format: cell-based, mouse
Description: FIGS. 10A to 10E. Inhibition of the LKB1-SIK-CRTC3-IL10 signaling axis drives the expression of markers of regulatory macrophages. (FIG. 10A) Effect of SIK inhibitors on the LPS-stimulated expression of LIGHT, SPHK1, Arg1 and IL-1ra (n=4, mean±SD). […] (FIG. 10C) Elevated expression of markers of regulatory macrophage in LKB1−/− macrophages. BMDMs were generated from LysM-Cre/LKB1+/+ and LysM-Cre/LKB1flox/flox mice and stimulated with 100 ng/ml LPS (mean±SD, n=3). (FIG. 10D) CRTC3 is required for the induction of markers of regulatory macrophages. […] LIGHT and SPHK1 mRNA was measured at 2 h and Arg1 at 8 h post-LPS stimulation (mean±SD, n=4). […] The experiment was carried out as in (FIG. 10D) except that BMDMs were generated from IL-10+/+ and IL-10−/− mice (mean±SD, n=4).
as §1

[11] = tested on: MARK isoforms; conditions: previously reported; cited from earlier work
[12] = tested on: NUAK isoforms; conditions: previously reported; cited from earlier work
[13] = tested on: IKK-related kinases; conditions: previously reported; cited from earlier work

CC1(C)C(=O)N([C@H]2CCc3c(O)cccc32)c2nc(Nc3cccc(CN4CCCC4)c3)ncc21 [MRT199665, 7-[(1S)-4-hydroxy-2,3-dihydro-1H-inden-1-yl]-5,5-dimethyl-2-{[3-(pyrrolidin-1-ylmethyl)phenyl]amino}-5,7-dihydro-6H-pyrrolo[2,3-d]pyrimidin-6-one]
IL-10 secretion ([1]; LPS-stimulated macrophages): stimulate IL-10 secretion in a dose dependent manner; also recorded: increased | Nurr77 mRNA [2]: increased | IL-10 mRNA [2]: increased | CRTC3 nuclear translocation [3]: translocates to the nucleus

Cn1cc(-c2ccc(Nc3ncc(C4CC4)c(NCCCNC(=O)C4CCC4)n3)cc2)cn1 [MRT68771]
inhibition of SIKs [4]: possess SIK inhibitory activity | IL-10 secretion ([1]; LPS-stimulated macrophages): elevated levels of IL-10 | pro-inflammatory cytokine secretion ([1]; LPS-stimulated macrophages): reduced levels of pro-inflammatory cytokines | IL-10 in serum [5]: elevated levels of IL-10 | pro-inflammatory cytokines in serum [5]: reduced levels of pro-inflammatory cytokines | drug metabolism and pharmacokinetic properties [6]: improved drug metabolism and pharmacokinetic properties

COc1ccc(N(C(=O)Oc2c(C)cccc2C)c2ccnc(Nc3ccc(N4CCN(C)CC4)cc3)n2)c(OC)c1 [KIN112]
inhibition of SIKs [4]: potent inhibitor; also recorded: potently inhibited; also recorded: possess SIK inhibitory activity | inhibition of AMPK-related kinases [7]: did not inhibit any other member | inhibition of protein kinases with a threonine residue at the gatekeeper site [8]: potent inhibitor; also recorded: inhibited | IL-10 secretion ([1]; LPS-stimulated macrophages): stimulate IL-10 secretion in a dose dependent manner; also recorded: increased | pro-inflammatory cytokine secretion ([1]; LPS-stimulated macrophages): greatly suppressed | IL-10 secretion ([1]; in response to TLR ligands): high levels of IL-10 | IL-12p40 secretion ([1]; in response to TLR ligands): low levels of IL-12p40 | Nurr77 mRNA [2]: increased | IL-10 mRNA [2]: increased | CREB-dependent gene transcription ([9]; LKB1+/+ cells): enhanced | transcription of Nurr1 and Nurr77 ([9]; LKB1−/− cells): only be increased to a small extent | IL-1ra mRNA ([10]; LPS-stimulated macrophages): greatly increased | mRNAs of regulatory macrophage markers (arginase-1, SPHK1, LIGHT) ([10]; TLR/LPS-stimulated macrophages): stimulating the production | switch of macrophage programme from classically activated towards regulatory phenotype ([10]; quiescent macrophages): switched their maturation programme from the classically activated route towards the regulatory phenotype

O=C(NCCCNc1nc(Nc2cccc(NC(=O)N3CCCC3)c2)ncc1I)c1cccs1 [BX795]
inhibition of MARKs [11]: potent inhibitor | inhibition of NUAK1 [12]: potent inhibitor | inhibition of IKK-related kinases [13]: potent inhibitor

B1: IL-4: Murine IL-4 from Peprotech, control in macrophage marker experiments (protein, UniProt P07750 21-140, looked up)
Interleukin-4: HIHGCDKNHLREIIGILNEVTGEGTPCTEMDVPNVLTATKNTTESELVCRASKVLRIFYLKHGKTPCLKKNSSVLMELQRLFRAFRCLDSSISCTMNESKSTSLKDFLESLKSIMQMDYS
expression of FIZZ, Ym1 or Mgl2 (wound-healing M2a markers) [10]: induced the expression | expression of LIGHT or SPHK1 ([10]; control experiments): not LIGHT or SPHK1

— patent US10233157B2, “SIK inhibitor for use in a method of treating an inflammatory and/or immune disorder” (Dana-Farber Cancer Institute, Inc., priority 2012, dated 2019)
